Source: ChEMBL document CHEMBL1201862, “PubChem BioAssay data set” (2004)
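These data come from cells grown in 96-well plates and exposed to compound for 48 hours at five concentrations. The concentration for 50% growth inhibition is given as GI50.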 Active and inactive are the calls of the source. Cut-off read from the data, not from the text of the source: active = GI50 up to about 1.1 µM and inactive = higher.

How the values were obtained:
Assay in all cases: NCI tumour cell line growth inhibition, 48 h
[1] = test system: NCI-H460
[2] = test system: HCT-15
[3] = test system: SR
[4] = test system: DU-145
[5] = test system: SK-OV-3
[6] = test system: U-251
[7] = test system: PC-3
[8] = test system: HL-60
[9] = test system: MDA-MB-231
[10] = test system: SK-MEL-28
[11] = test system: SF-295
[12] = test system: RPMI-8226
[13] = test system: T47D
[14] = test system: MDA-N
[15] = test system: HCT-116
[16] = test system: SN12C
[17] = test system: KM12
[18] = test system: Hs-578T
[19] = test system: HOP-62
[20] = test system: SK-MEL-5
[21] = test system: CAKI-1
[22] = test system: UACC-62
[23] = test system: HOP-92
[24] = test system: HT-29
[25] = test system: MDA-MB-435
[26] = test system: IGROV-1
[27] = test system: Malme-3M
[28] = test system: CCRF-CEM
[29] = test system: SNB-75
[30] = test system: NCI-H522
[31] = test system: COLO 205
[32] = test system: NCI-H23
[33] = test system: NCI/ADR-RES
[34] = test system: A498
[35] = test system: SK-MEL-2
[36] = test system: M14
[37] = test system: OVCAR-8
[38] = test system: OVCAR-3
[39] = test system: MOLT-4
[40] = test system: LOX IMVI
[41] = test system: MCF7
[42] = test system: RXF 393
[43] = test system: 786-0
[44] = test system: SF-268
[45] = test system: HCC 2998
[46] = test system: EKVX
[47] = test system: A549
[48] = test system: SW-620
[49] = test system: K562
[50] = test system: TK-10
[51] = test system: UACC-257
[52] = test system: SF-539
[53] = test system: NCI-H226
[54] = test system: SNB-19
[55] = test system: ACHN
[56] = test system: OVCAR-5
[57] = test system: OVCAR-4
[58] = test system: UO-31

`S=C(/C=C1\SC(=N\c2ccccc2)/C(=N/c2ccccc2)N1c1ccccc1)Nc1ccccc1` was tested, and the GI50 [1] was > 100 µM (inactive), the GI50 [2] was > 100 µM and the GI50 [3] was > 100 µM (inactive). The GI50 [4] was > 100 µM (inactive), the GI50 [5] was 67.3 µM (inactive) and the GI50 [6] was > 100 µM (inactive). For the same compound, the GI50 [7] was > 100 µM (inactive), the GI50 [8] was > 100 µM (inactive) and the GI50 [9] was > 100 µM (inactive). The GI50 [10] was > 100 µM (inactive), the GI50 [11] was > 100 µM (inactive) and the GI50 [12] was > 100 µM (inactive). The GI50 [13] was > 100 µM (inactive), the GI50 [14] was > 100 µM (inactive) and the GI50 [15] was > 100 µM (inactive). For the same compound, the GI50 [16] was > 100 µM (inactive), the GI50 [17] was > 100 µM (inactive) and the GI50 [18] was > 100 µM (inactive). The GI50 [19] was > 100 µM (inactive), the GI50 [20] was > 100 µM (inactive) and the GI50 [21] was > 100 µM (inactive). The GI50 [22] was 51.6 µM (inactive), the GI50 [23] was > 100 µM (inactive) and the GI50 [24] was > 100 µM (inactive). The GI50 [25] was > 100 µM (inactive), the GI50 [26] was > 100 µM (inactive) and the GI50 [27] was > 100 µM (inactive). For the same compound, the GI50 [28] was 3.66 µM (inactive), the GI50 [29] was > 100 µM (inactive) and the GI50 [30] was > 100 µM (inactive). For the same compound, the GI50 [31] was > 100 µM (inactive), the GI50 [32] was > 100 µM (inactive) and the GI50 [33] was > 100 µM (inactive). For the same compound, the GI50 [34] was > 100 µM (inactive), the GI50 [35] was > 100 µM (inactive) and the GI50 [36] was > 100 µM (inactive). For the same compound, the GI50 [37] was > 100 µM (inactive), the GI50 [38] was > 100 µM (inactive) and the GI50 [39] was 15.2 µM (inactive).
In the case of `C/C(=C\CCC1=CC(=O)OC1)CCC1C2C(=O)CC(C)[C@@]3(C)CC[C@]1(C)[C@@]23C` (stereo partly specified), the GI50 [2] is reported as > 10 µM, the GI50 [40] is reported as > 10 µM (inactive) and the GI50 [3] is reported as 6.62 µM (inactive). The GI50 [4] was > 10 µM (inactive), the GI50 [5] was > 10 µM (inactive) and the GI50 [7] was > 10 µM (inactive). The GI50 [8] was 5.85 µM (inactive), the GI50 [9] was > 10 µM (inactive) and the GI50 [41] was > 10 µM (inactive). The GI50 [10] was > 10 µM (inactive), the GI50 [11] was > 10 µM (inactive) and the GI50 [42] was > 10 µM (inactive). For the same compound, the GI50 [12] was > 10 µM (inactive), the GI50 [13] was > 10 µM (inactive) and the GI50 [43] was > 10 µM (inactive). For the same compound, the GI50 [14] was > 10 µM (inactive), the GI50 [44] was > 10 µM (inactive) and the GI50 [45] was > 10 µM (inactive). The GI50 [16] was > 10 µM (inactive), the GI50 [17] was > 10 µM (inactive) and the GI50 [46] was > 10 µM (inactive). The GI50 [19] was > 10 µM (inactive), the GI50 [20] was > 10 µM (inactive) and the GI50 [21] was > 10 µM (inactive). The GI50 [47] was > 10 µM (inactive), the GI50 [22] was > 10 µM (inactive) and the GI50 [48] was > 10 µM (inactive). The GI50 [49] was 9.44 µM (inactive), the GI50 [24] was > 10 µM (inactive) and the GI50 [26] was > 10 µM (inactive). The GI50 [27] was > 10 µM (inactive), the GI50 [28] was > 10 µM (inactive) and the GI50 [29] was > 10 µM (inactive). The GI50 [50] was > 10 µM (inactive), the GI50 [31] was > 10 µM (inactive) and the GI50 [32] was > 10 µM (inactive). For the same compound, the GI50 [51] was > 10 µM (inactive), the GI50 [36] was > 10 µM (inactive) and the GI50 [37] was > 10 µM (inactive). For the same compound, the GI50 [39] was > 10 µM (inactive).
For `CC1(C)C(O)c2ccccc2OC1N1CCN(C2Oc3ccccc3C(O)C2(C)C)CC1` (stereo unspecified), the GI50 [1] was > 100 µM (inactive), the GI50 [2] was > 100 µM and the GI50 [40] was > 100 µM (inactive). The GI50 [3] was > 100 µM (inactive), the GI50 [4] was > 100 µM (inactive) and the GI50 [5] was > 100 µM (inactive). For the same compound, the GI50 [6] was > 100 µM (inactive), the GI50 [7] was > 100 µM (inactive) and the GI50 [8] was > 100 µM (inactive). For the same compound, the GI50 [52] was > 100 µM (inactive), the GI50 [9] was > 100 µM (inactive) and the GI50 [41] was > 100 µM (inactive). The GI50 [10] was > 100 µM (inactive), the GI50 [11] was > 100 µM (inactive) and the GI50 [42] was > 100 µM (inactive). For the same compound, the GI50 [12] was > 100 µM (inactive), the GI50 [13] was > 100 µM (inactive) and the GI50 [43] was > 100 µM (inactive). For the same compound, the GI50 [14] was > 100 µM (inactive), the GI50 [15] was > 100 µM (inactive) and the GI50 [44] was > 100 µM (inactive). The GI50 [45] was > 100 µM (inactive), the GI50 [53] was > 100 µM (inactive) and the GI50 [16] was > 100 µM (inactive). For the same compound, the GI50 [17] was > 100 µM (inactive), the GI50 [54] was > 100 µM (inactive) and the GI50 [46] was > 100 µM (inactive). The GI50 [18] was > 100 µM (inactive), the GI50 [19] was > 100 µM (inactive) and the GI50 [20] was > 100 µM (inactive). For the same compound, the GI50 [21] was > 100 µM (inactive), the GI50 [47] was > 100 µM (inactive) and the GI50 [22] was > 100 µM (inactive). For the same compound, the GI50 [23] was > 100 µM (inactive), the GI50 [48] was > 100 µM (inactive) and the GI50 [49] was > 100 µM (inactive). For the same compound, the GI50 [24] was > 100 µM (inactive), the GI50 [55] was > 100 µM (inactive) and the GI50 [25] was > 100 µM (inactive). For the same compound, the GI50 [26] was > 100 µM (inactive), the GI50 [27] was > 100 µM (inactive) and the GI50 [28] was > 100 µM (inactive). The GI50 [29] was > 100 µM (inactive), the GI50 [30] was > 100 µM (inactive) and the GI50 [50] was > 10 µM (inactive). For the same compound, the GI50 [31] was > 100 µM (inactive), the GI50 [32] was > 100 µM (inactive) and the GI50 [33] was > 100 µM (inactive). The GI50 [51] was > 100 µM (inactive), the GI50 [34] was 30 µM (inactive) and the GI50 [36] was > 100 µM (inactive). The GI50 [56] was > 100 µM (inactive), the GI50 [37] was > 100 µM (inactive) and the GI50 [57] was > 100 µM (inactive). The GI50 [58] was > 100 µM (inactive), the GI50 [38] was > 100 µM (inactive) and the GI50 [39] was > 100 µM (inactive).
